{
  "source": "patent US20150094264A1",
  "about": "“USE OF OBESTATIN FOR MUSCLE REGENERATION” (UNIVERSIDADE DE SANTIAGO DE COMPOSTELA, priority 2012, published 2015)",
  "key": {"[1]": {"system": "damaged tibialis anterior of mouse", "assay": "Creatine kinase levels in serum of mice with damaged tibialis anterior", "type": "in vivo, Swiss mice", "settings": "300 nmol/kg weight local; 96 h", "protocol": "FIG. 12. Analysis of the creatine kinase levels in serum of mice wherein damage was induced in the tibialis anterior muscle and they were treated locally with obestatin or vehicle (PBS) during 96 h. The creatine kinase levels are expressed as IU/L (International units/litre for the three study groups: control without damage, damage control (PBS) and treatment with obestatin (n=10 per group; mean±standard error; *, #, p<0.005).\nThe mice (30 g; n=50) were maintained in 12 h light-darkness cycled with free access to standard diet and water. To induce the muscle damage, the tibialis anterior muscle (TA) was extracted under anaesthesia and subjected to three cycles of damage due to cold contact applying along the length of the muscle a metal bar cooled in liquid nitrogen. The damaged muscles were treated locally with obestatin injection (300 nmol/kg weight) or the corresponding vehicle (PBS; control) during the times indicated in 24 h intervals. The animals were assigned to one of the five experimental groups (n=10/group): 1) control group (saline); 2) obestatin group 48 h (obestatin 300 nmol/kg weight/24 h); 3) obestatin group 96 h (obestatin 300 nmol/kg weight/24 h); 4) obestatin group 168 h (obestatin 300 nmol/kg weight/24 h); and, obestatin group 240 h (obestatin 300 nmol/kg weight/24 h). […]"}, "Akt": {"system": "Akt", "assay": "Activation of Akt [pAkt(S473)] by obestatin in L6E9 myoblasts, immunoblot", "type": "cell-based, rat", "protocol": "(§1) FIG. 1. Activation of regulatory enzymes of mitogenesis and myogenesis by obestatin in L6E9 myoblasts and myotubes. Effect of obestatin on activity of regulatory enzymes of the mitogenic capacity (ERK 1/2), metabolic capacity (Akt and AMPK) and myogenic capacity (Akt and p38). Based on a dose-response study, the saturating dose for the maximum enzymatic activation is established for a concentration of 5 nM. […] Inactivation of AMPK is described in both cell models. The activation profile discovers bimodal characteristics for the action of obestatin: 1.—mitogenic activation in myoblasts; and, 2.—myogenic activation. The immunoblots are representative of 6 independent assays.\n(§2) The studies were performed based on the use of L6E9 rat myoblasts which were maintained in growth medium (GM) formed by DMEM (Dulbecco's Modified Eagle Medium) supplemented with 10% fetal bovine serum (FBS), 100 U/mL penicillin, and 100 U/mL streptomycin. For the differentiation, the cells were cultured at 80-100% of confluence in GM and it was replaced for differentiation medium (DM) formed by DMEM supplemented with 2% FBS, 100 U/mL penicillin, and 100 U/mL streptomycin during 6 days.\n(§3) The tissue or cell samples were directly lysed in RIPA buffer [Tris-HCl (pH 7.2), 50 mM; NaCl, 150 mM; EDTA, 1 mM; NP-40, 1% (v/v); Sodium deoxycholate, 0.25% (w/v); protease inhibitors (Sigma); phosphatise inhibitors (Sigma)]. The lysates were clarified by centrifugation (14,000×g during 15 min at 4° C.) and the protein concentration was quantified using QuantiPro™ BCA assay kit (Sigma). For immunoblot, equal amounts of protein were loaded which were fractionated in SOS-PAGE gels and transferred to nitrocellulose membranes. The immunoreactive bands were detected by chemiluminescence (Pierce ECL Western Blotting Substrate; Thermo Scientific, Ill., USA).\n(§4) To define the mitogenic and myogenic effect of obestatin, the activation capacity was studied of intracellular targets regulating proliferation (ERK1/2) and/or differentiation (p38 and Akt). […]"}, "[2]": {"system": "damaged tibialis anterior of mouse", "assay": "Immunofluorescence analysis of eMHC expression in damaged tibialis anterior of mouse", "type": "in vivo, Swiss mice", "settings": "300 nmol/kg weight; 96 h", "protocol": "FIG. 11. Immufluorescence analysis of the effect of the exogenous administration of obestatin (96 h) on eMHC expression in the damaged tibialis anterior of mouse (animal model). Representative images of eMHC expression by immunofluorescence of sections of the tibialis anterior treated with obestatin (300 nmol/kg/24 h) or PBS (control) 96 h after inducing the damage. The upper panels correspond to staining with anti-eMHC antibody and the lower panels to staining with DAPI.\nFor the tissue immunofluorescence analysis, frozen sections were obtained which were fixed using a buffered solution of PBS-paraformaldehyde during 15 min, washed, permeabilized and blocked with PBT during 30 min, and later incubated with the corresponding primary antibody (anti-eMHC, anti-laminin antibody) diluted in PBT (1:50) during 12 h at 4° C. After three washes with PBS, the tissue sections were incubated with secondary antibody in PBT (1:1000) during 45 min at 37° C. […] The digital images of the cell culture were acquired with a Leica TCS-SP2 confocal microscope.\nThe mice (30 g; n=50) were maintained in 12 h light-darkness cycled with free access to standard diet and water. To induce the muscle damage, the tibialis anterior muscle (TA) was extracted under anaesthesia and subjected to three cycles of damage due to cold contact applying along the length of the muscle a metal bar cooled in liquid nitrogen. […]"}, "ERK 1/2": {"system": "ERK 1/2", "assay": "Activation of ERK 1/2 [pERK1/2(T202/Y204)] by obestatin in L6E9 myoblasts, immunoblot", "type": "cell-based, rat", "protocol": "as §1, §2, §3, §4"}},
  "data": [
    {"substance": "obestatin", "values": [
      {"measurement": "creatine kinase serum levels in relation to muscle damage controls (PBS)", "setting": "[1]", "value": "significant reduction"},
      {"measurement": "obestatin concentration at which activation of Akt [pAkt(S473)] was observed", "setting": "Akt", "value": 0.1, "unit": "nM"},
      {"measurement": "obestatin concentration at which pAkt(S473) phosphorylation levels reached saturable values", "setting": "Akt; dose-response", "value": 5, "unit": "nM"},
      {"measurement": "time post-stimulation of maximum pAkt(S473) levels", "setting": "Akt; obestatin 5 nM", "value": 10, "unit": "min"},
      {"measurement": "eMHC expression by immunofluorescence in relation to controls", "setting": "[2]", "value": "significantly increases"},
      {"measurement": "obestatin concentration at which activation of ERK 1/2 [pERK1/2(T202/Y204)] was observed", "setting": "ERK 1/2", "value": 0.1, "unit": "nM"},
      {"measurement": "obestatin concentration at which pERK1/2(T202/Y204) phosphorylation levels reached saturable values", "setting": "ERK 1/2; dose-response", "value": 5, "unit": "nM"},
      {"measurement": "time post-stimulation of maximum pERK1/2(T202/Y204) levels", "setting": "ERK 1/2; obestatin 5 nM", "value": 10, "unit": "min"}
    ]}
  ]
}
